Data taken from publication PMC3190643 (Journal of medicinal chemistry, 2011).
Structures can show the parent of a compound that is named as a salt. Where two headings read alike, the source gives them in different places.

Columns and labels:
[1] = for plasma concentration: IV dose of 3, mice, normalized to 8.13 mg/kg
in vivo = conditions: male, C57Bl/6J, mouse, iv
[2] = humans; cited from earlier work
[3] = molecular target: T1, Human recombinant active MMP-2 (Homo sapiens, UniProt P08253); conditions: slow-binding
T1 sequence (P08253 110-660): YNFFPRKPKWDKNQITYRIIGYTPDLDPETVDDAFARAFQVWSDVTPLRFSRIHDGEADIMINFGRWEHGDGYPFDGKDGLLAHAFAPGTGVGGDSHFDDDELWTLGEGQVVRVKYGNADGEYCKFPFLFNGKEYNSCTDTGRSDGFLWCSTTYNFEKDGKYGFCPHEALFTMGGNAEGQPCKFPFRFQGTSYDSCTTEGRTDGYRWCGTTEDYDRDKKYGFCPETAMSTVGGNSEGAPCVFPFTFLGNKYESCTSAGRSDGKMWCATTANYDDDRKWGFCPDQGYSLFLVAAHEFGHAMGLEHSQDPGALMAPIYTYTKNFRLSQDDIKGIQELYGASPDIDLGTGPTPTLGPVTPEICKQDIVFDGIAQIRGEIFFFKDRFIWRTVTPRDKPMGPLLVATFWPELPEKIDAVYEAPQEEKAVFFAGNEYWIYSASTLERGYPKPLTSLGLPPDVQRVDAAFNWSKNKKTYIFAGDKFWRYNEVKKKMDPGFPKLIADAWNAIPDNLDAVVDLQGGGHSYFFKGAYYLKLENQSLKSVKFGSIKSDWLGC

[4] = molecular target: catalytic domain of human recombinant MMP-9 (Homo sapiens, UniProt P14780); conditions: slow-binding
Sequence of catalytic domain of human recombinant MMP-9 (P14780 107-444 limits assumed): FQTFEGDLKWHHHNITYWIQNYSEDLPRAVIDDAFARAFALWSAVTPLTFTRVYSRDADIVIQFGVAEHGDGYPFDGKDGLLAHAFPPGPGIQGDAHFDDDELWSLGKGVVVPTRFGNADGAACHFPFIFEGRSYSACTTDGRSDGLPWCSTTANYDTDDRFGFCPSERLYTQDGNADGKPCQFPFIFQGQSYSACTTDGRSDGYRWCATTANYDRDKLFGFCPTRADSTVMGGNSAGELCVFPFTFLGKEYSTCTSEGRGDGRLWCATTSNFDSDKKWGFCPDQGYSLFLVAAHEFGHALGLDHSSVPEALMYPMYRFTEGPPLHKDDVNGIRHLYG

[5] = molecular target: catalytic domain of MMP-14 (Homo sapiens, UniProt P50281); conditions: slow-binding
[6] = Metabolic stability in mouse liver microsomes; format: in vitro ADME; conditions: calculated from in vitro half-life; for CLint scaled at 100 μM: mouse, microsomes, pH 7.4, CLint,app
[7] = Metabolic stability in rat liver microsomes; format: in vitro ADME; conditions: pH 7.4
[8] = Metabolic stability in human liver microsomes; format: in vitro ADME; conditions: pH 7.4
[9] = system: Salmonella typhimurium Ames II mixed strains (TA7001 to TA7006) and tester strain TA98; assay: Ames II mutagenicity assay; conditions: with and without rat S9 activation, up to 1 mg/mL
[10] = cited from earlier work
[11] = t½ α (distribution half life), IV dose of 5d […], mice
[12] = t½ β (terminal half life), IV dose of 5d […], mice

`CC(=O)Nc1ccc(Oc2ccc(S(=O)(=O)CC3CS3)cc2)cc1` (stereo not drawn) [Compound M3] gave a plasma concentration ([1]; 2-3 min) of 197 ± 61.6 nM, a plasma concentration ([1]; 4-5 min) of 462 ± 313 nM and a plasma concentration ([1]; 7-8 min) of 192 ± 12.1 nM. It also gave a plasma concentration ([1]; 11-12 min) of 150 ± 27.2 nM, a plasma concentration ([1]; 62-66 min) of 27.3 ± 6.28 nM and a half-life (in vivo; [11]) of 12 min. For the same molecule, the half-life (in vivo; t½ α, IV dose of 3, mice) was 5.1 min.
For `CC(C)c1cccc(C(C)C)c1O` [propofol], the Vd [2] is listed as 12.4 L/kg.
For `Nc1ccc(Oc2ccc(S(=O)(=O)CC3CS3)cc2)cc1O` (stereo not drawn) [Compound 13, 2-Amino-5-(4-((thiiran-2-ylmethyl)sulfonyl)phenoxy)phenol], the “10^4koff, MMP-2” value [3] was 1.4 ± 0.7 s^−1, the “10^−3kon, MMP-2” value [3] was 1.7 ± 0.1 M^−1s^−1 and the “10^4koff, MMP-9 catalytic domain” value [4] was 5.3 ± 1.0 s^−1. The “10^−3kon, MMP-9 catalytic domain” value [4] was 1.1 ± 0.1 M^−1s^−1, the “10^4koff, MMP-14 catalytic domain” value [5] was 7.0 ± 1.6 s^−1 and the “10^−3kon, MMP-14 catalytic domain” value [5] was 2.7 ± 0.3 M^−1 s^−1.
With `NCCCC[C@H](N)C(=O)Nc1ccc(Oc2ccc(S(=O)(=O)CC3CS3)cc2)cc1` (stereo partly drawn) [Compound 5b] the “10^4koff, MMP-2” value [3] was 2.1 ± 0.9 s^−1, the “10^−3kon, MMP-2” value [3] was 3.4 ± 0.1 M^−1s^−1 and the “10^4koff, MMP-9 catalytic domain” value [4] was 4.2 ± 0.7 s^−1. For the same molecule, the “10^−3kon, MMP-9 catalytic domain” value [4] was 0.27 ± 0.04 M^−1s^−1.
Work on `N=C(N)NCCC[C@H](N)C(=O)Nc1ccc(Oc2ccc(S(=O)(=O)CC3CS3)cc2)cc1` (stereo partly drawn) [Compound 5d] yielded a CLint scaled at 100 μM [6] of less than 47 mL/min/kg, a CLint scaled at 100 μM [7] of 23.7 ± 1.8 mL/min/kg and a half-life at 100 μM [7] of no less than 60 min. It also gave a CLint scaled at 100 μM [8] of less than 10 mL/min/kg, a Vd (in vivo) of 0.0978 L/kg and a clearance (in vivo) of 58.2 mL/min/kg. The half-life (in vivo; elimination (terminal) half life t½ β, IV dose of 5d […], mice) was greater than 240 min, the half-life (in vivo; [11]) was less than 1 min and the half-life (in vivo; [12]) was 260 min. For the same molecule, the “Ames II mutagenicity response” value [9] was “negative (non-mutagenic)”.
For `NCC(=O)Nc1ccc(Oc2ccc(S(=O)(=O)CC3CS3)cc2)cc1` (stereo not drawn) [Compound 5a], the “10^4koff, MMP-2” value [3] was 8.2 ± 0.9 s^−1, the “10^−3kon, MMP-2” value [3] was 1.9 ± 0.6 M^−1s^−1 and the “10^4koff, MMP-9 catalytic domain” value [4] was 6.5 ± 0.6 s^−1. For the same molecule, the “10^−3kon, MMP-9 catalytic domain” value [4] was 0.21 ± 0.04 M^−1s^−1.
With `N[C@@H](CCC(=O)O)C(=O)Nc1ccc(Oc2ccc(S(=O)(=O)CC3CS3)cc2)cc1` (stereo partly drawn) [Compound 5c] the “10^4koff, MMP-2” value [3] was 1.8 ± 1.6 s^−1, the “10^−3kon, MMP-2” value [3] was 2.5 ± 0.1 M^−1s^−1 and the “10^4koff, MMP-9 catalytic domain” value [4] was 12.0 ± 0.7 s^−1. For the same molecule, the “10^−3kon, MMP-9 catalytic domain” value [4] was 0.28 ± 0.02 M^−1s^−1.
With `Nc1ccc(Oc2ccc(S(=O)(=O)CC3CS3)cc2)cc1` (stereo not drawn) [Compound 3, 4-[4-((Thiiran-2-yl)methylsulfonyl)phenoxy]benazamine · HCl salt] the “CLint,app” value [6] was 102.8 ± 7.9 mL/min/kg, the CLint scaled at 100 μM [6] was 103 mL/min/kg and the CLint scaled at 100 μM [7] was 60 ± 1.8 mL/min/kg. The CLint scaled at 100 μM [8] was less than 10 mL/min/kg, the “time plasma levels were higher than the Ki for MMP-9” value ([1]; male, C57Bl/6J, mouse, in vivo) was 20 min and the Vd (in vivo) was 0.0125 L. The clearance (in vivo) was 87.5 mL/min/kg, the half-life (in vivo; [11]) was 2.9 min and the half-life (in vivo; [12]) was 69 min. The “Ames II mutagenicity response” value [9] was “negative (non-mutagenic)”.
For `O=S(=O)(CC1CS1)c1ccc(Oc2ccccc2)cc1` (stereo not drawn) [Compound 1, (4-phenoxyphenylsulfonyl)methylthiirane], the “intrinsic clearance in the rat” value [10] is given as 117 mL/min/kg and the “t½ in rat liver microsomes” value [10] is given as 12.0 min.
